In PMC4464647, “ANO1 (TMEM16A) in pancreatic ductal adenocarcinoma (PDAC)” (Pflugers Archiv, 2014):
d = 2'-deoxy (DNA)

Tests used:
Format in all cases: cell-based, human
[1] = tested on: BxPC-3 cells; assay: BrdU incorporation cell proliferation assay; conditions: BxPC-3, inhibitor 20 μM, 24 h
Protocol: To assess cell proliferation and apoptosis, cells were plated in duplicates on a 96-well plate and incubated in 100 μl of the cell line appropriate media described above. Cells were transfected with siRNA soon after complete attachment (approx. 3 h after seeding). Cells were treated with vehicle, 20 μM gemcitabine, 20 μM T16Ainh-A01, or 10 μM free NS3728 (see below) after culture in a humidified 37 °C and 5 % CO2 incubator overnight. BrdU incorporation was measured using Cell Proliferation ELISA, BrdU (chemiluminescent) (Roche Diagnostics A/S, Denmark) following the manufacturer’s instructions. Caspases 3, 6, and 7 activation was evaluated using Homogeneous Caspases Assay (fluorimetric) (Roche Diagnostics A/S, Denmark).
Fig. 7 VRAC, but not ANO1, regulates cellular proliferation. a Summary of BrdU incorporation in HPDE, Capan-1, AsPC-1, and BxPC-3 cells after various treatments as indicated. Cells were transfected shortly after complete attachment (approx. 3 h) and BrdU incorporation was assessed 36 h after transfection. To investigate effect of inhibitors, cells were incubated for 24 h with respective inhibitor. Values shown are relative to appropriate control. Data shown represents mean ± s.e.m. of n = 4–6 individual experiments. **p ≤ 0.01 and ***p ≤ 0.001 when compared with control

[2] = tested on: BxPC-3 cells; assay: Fura-2 measurement of free intracellular calcium, ATP stimulation; conditions: for effect on basal [Ca2+]i: BxPC-3, inhibitor 20 μM
Protocol: (§1) HPDE and BxPC-3 cells were incubated with 2 μM Fura-2 AM (Sigma-Aldrich, Denmark) for 30 min at 37 °C. Cells were subsequently washed with Krebs solution containing (in mM) 150 NaCl, 6 KCl, 1.5 CaCl2, 1 MgCl2, 10 glucose, and 10 HEPES; pH was adjusted to 7.4 using NaOH. Coverslips were mounted on a recording chamber. In the beginning of the experiment, cells were perfused with Krebs solution at 4 ml/min until baseline was stable. […] Changes in [Ca^2+]i were measured by a TIRF iMIC microscope (TILL Photonics, Germany). Fura-2 AM loaded cells were illuminated at 340 nm for 80 ms and 380 nm for 80 ms at 1 s intervals using a TILL Polychrome monochromator. Five hundred-nanometer emission images were captured by an image-intensifying, charge-coupled device (CCD) camera (TILL Photonics, Germany) and digitized by an image processing system (TILL Photonics, Germany). The monochromator and CCD camera were controlled by LA Live Acquisition software, which was also used for image analysis. The [Ca^2+]i was presented as the Fura-2 ratio of the fluorescence signals obtained at 340/380 nm.
(§2) Fig. 8 Cl^− channel inhibitors alter ATP-induced Ca^2+ signals. Intracellular Ca^2+ measurements in FURA-2 loaded HPDE and BxPC-3 cells. a Representative single-cell traces of individual experiments. Different substances were applied as indicated. […] (n) = number of individual experiments; each containing between 5–45 single cells.***p ≤ 0.001 when compared to no inhibitor condition; ^## p ≤ 0.01 when compared with HPDE no inhibitor
(§3) Activation of CaCC requires an increase in [Ca^2+]i, which can be achieved by stimulation of receptors such as purinergic receptors. Therefore, we studied the effect of Cl^− channel inhibitors on changes in [Ca^2+]i induced by purinergic signaling. We chose HPDE cells with very low expression levels of ANO1 and the highly ANO1 overexpressing cell line BxPC-3 for investigation. Fura-2 loaded HPDE and BxPC-3 cells were stimulated with ATP (10 μM) (Fig. 8) or exposed to the inhibitor prior to stimulation. ATP stimulation caused a 0.46 ± 0.03 peak increase in the Fura-2 ratio in HPDE and 0.55 ± 0.02 in BxPC-3 cells. […] However, no effect of the inhibitor on basal Ca^2+ level was observed.

[3] = tested on: HPDE cells; assay: as above; conditions: for effect on basal [Ca2+]i: inhibitor 20 μM
Protocol: as §1, §2, §3

[4] = tested on: BxPC-3 cells; assay: Scratch wound healing assay; conditions: 5 μM aphidicolin; for effect on wound closure / migratory behavior: BxPC-3, inhibitor 20 μM
Protocol: Cells were seeded into Essen ImageLock 96-well plates. Cells were transfected with siRNA shortly after cells completely attached at 80 % confluency. […] The wound confluence was obtained and analyzed by using the IncuCyte phase-contrast imaging and scratch wound assay system and software (Essen Bioscience, USA). Wound closure was assessed by comparing the mean relative wound density (%RWD) according to the following formula: % RWD = 100 × w(t) − w(0)/[…]. Here, w(t) is the density of wounded area at time t and c(t) is the density of cell region at time t. Each experiment was conducted in triplicates.
We therefore assessed a possible contribution of ANO1 in PDAC cell migration using wound healing assay. […] The experiments were conducted in the presence of 5 μM aphidicolin to rule out a possible effect on cell proliferation. […] AsPC-1 cells were therefore not well suited for studies of lateral motility.
Fig. 9 ANO1 supports migration of PDAC cells. Wound healing assay is shown as relative wound density (density of wounded area relative to confluency of cell region) over time. Aphidicolin (5 μM) was added to stop proliferation. a AsPC-1 cells and b BxPC-3 cells after transfection with either scrambled siRNA (5 nM) or siRNA targeting ANO1 (50 nM). c BxPC-3 cells in presence of different inhibitors. Data shown represents mean ± s.e.m. of n = 4 experiments; each run was carried out in triplicates

Compound: CC(C)(C)C1CCc2c(sc(NC(=O)c3ccco3)c2C(=O)O)C1 (centres unmarked) [CaCCinh-A01, 6-(1,1-dimethylethyl)-2-[(2-furanylcarbonyl)amino]-4,5,6,7-tetrahydrobenzo[b]thiophene-3-carboxylic acid]
- proliferation (BrdU incorporation) [1]: larger effect
- effect on basal [Ca2+]i [2]: reversible increase
- effect on basal [Ca2+]i [3]: reversible increase
- effect on wound closure / migratory behavior [4]: seemed to slow down wound closure; however, this did not reach significance

Compound: CCc1c(C)nc(SCC(=O)Nc2nc(-c3ccc(OC)cc3)cs2)[nH]c1=O [T16Ainh-A01, 2-[(5-Ethyl-1,6-dihydro-4-methyl-6-oxo-2-pyrimidinyl)thio]-N-[4-(4-methoxyphenyl)-2-thiazolyl]acetamide]
- proliferation (BrdU incorporation) [1]: slight, but non-significant decrease of proliferation
- effect on basal [Ca2+]i [2]: no effect
- ATP-induced change in Fura-2 ratio after inhibitor ([2]; BxPC-3, inhibitor 20 μM before ATP 10 μM): 0.42 ± 0.03
- effect on basal [Ca2+]i [3]: no effect
- ATP-induced change in Fura-2 ratio after inhibitor ([3]; inhibitor 20 μM before ATP 10 μM): 0.32 ± 0.03
- effect on wound closure / migratory behavior [4]: no detectable effect on migratory behavior

Compound: siRNA targeting ANO1: Predesigned siRNA oligo from Sigma-Aldrich, 5′-CCUUCAACGUCAGUGACUU[dT][dT]-3′, 5′-AAGUCACUGACGUUGAAGG[dT][dT]-3′ (RNA, 3' dTdT, backbone not given here)
- migration decreased to ([4]; BxPC-3, siRNA 50 nM, after 60 h): 30 ± 8%
